Where two headings read alike, the source gives them in different places.
Columns and labels:
[1] = humans receiving the usual oral dose; stated by Reviewer 1, no reference; cited from earlier work
[2] = Drug stability at high temperature (150 °C, 2 h), HPLC; format: physicochemical; conditions: 150 °C for 2 h
Protocol: To determine the drug stability at high temperatures, the drug was weighed in a 20 mL glass vial, and placed in a convection oven at 150 °C for 2 h. Drug was dissolved in methanol, and the concentration was compared to that of an unheated standard of the same initial concentration via HPLC.

[3] = design: method as in ref 58 (a number printed in a supplementary file, which may have a reference list of its own: not looked up in the article's list); conditions: cited from earlier work
[4] = Plasma pharmacokinetics of immediate release and gastric resident dosage forms in pigs; format: in vivo, Yorkshire pigs
Protocol: All animal experiments were approved by the Committee on Animal Care at the Massachusetts Institute of Technology. In vivo pharmacokinetics were evaluated in an unblinded fashion in female Yorkshire pigs (50–95 kg) that were randomly assigned to the immediate release or sustained release groups. Animals were fed daily in the morning and in the evening with a diet consisting of pellets (Laboratory mini-pig growler diet, 5081), with a midday snack consisting of various fruits and vegetables. Specifically, the pellets were 5/32” x ¼” length, and consisted of ground oats, alfalfa meal, wheat middlings, soybean meal, dried beet pulp, salts and other micronutrients.
To determine the oral pharmacokinetics of immediate release dosage forms of DTG and CAB, 50 mg of DTG and 30 mg of CAB were weighed and filled into gelatine capsules. For RPV pharmacokinetics, RPV base was dissolved in poly(ethylene glycol) (molecular weight—400 Da) containing 10-fold molar excess of citric acid. The concentration of RPV base in this solution was 5 mg/mL and 5 mL of the solution was dosed in a gelatine capsule. […] To determine oral pharmacokinetics from gastric retentive dosage forms, the arms of dosage forms (2–3/pig containing 350 mg DTG, 175 mg RPV or 210 mg CAB) were folded into capsule shells immediately prior to dosing. […]. The capsules containing drug or dosage form were delivered into the intestine or stomach respectively. At various time points, blood samples (0.5 mL) were collected from a central line connected to the external jugular vein or from a mammary vein into […] Vacutainer gold top tubes (Becton, Dickinson and Co. USA). Plasma samples were separated from blood by centrifugation (1800g, 10 min at 4 °C) and were stored at −80 °C. Atropine can reduce gastric acid production and gastric motility which may affect the overall drug pharmacokinetics and the gastric retention of the dosage form. […]. Drug concentrations in the plasma were analysed using UPLC-MS/MS. Plasma samples (100 µL) were spiked with 200 µL acetonitrile solution of 250 µg/mL maraviroc (internal standard) to cause precipitation. Samples were vortexed and sonicated for 10–20 min and then centrifuged (21130g, 10 min). Two hundred microliters of solution were pipetted into a 96-well plate containing 200 µL of nanopure water. Finally, 2.5 μL was injected onto the UPLC–ESI–MS system for analysis.
UPLC separation was carried out on a Waters® UPLC aligned with a Waters® Xevo–TQ-SMS mass spectrometer (Waters Ltd., UK). MassLynx® 4.1 software was used for data acquisition and analysis. Liquid chromatography separation was performed on an Acquity® UPLC CSH C18 (50 × 2.1 mm, 1.7 μm particle size) column at 50 °C. The mobile phase consisted of acetonitrile spiked with 0.1% formic acid and 10 mM ammonium formate solution. The mobile phase was flowed at a rate of 0.6 mL/min using a time and solvent gradient composition. The initial composition (100% aqueous) was held for 1 min, following which the composition was changed linearly to 20% organic phase over the next 0.25 min. The composition was then brought to 100% organic over 1.25 min, held for 0.5 min and finally shifted to the initial composition and held constant until the end of the run for column equilibration. The total run time was 4 min and sample injection volume was 2.5 μL. The mass spectrometer was operated in the multiple reaction monitoring (MRM) mode. Sample introduction and ionization was by electrospray ionization (ESI) in the positive ion mode. DTG, RPV and CAB were analysed at mass-to-charge ratios of […] respectively. Stock solutions of DTG, RPV, CAB, and an internal standard maraviroc were prepared in methanol at a concentration of 500 μg/mL. A ten-point calibration curve was prepared ranging from 2.5–5000 ng/mL. Quality control samples were prepared in a similar procedure using an independent stock solution at three concentrations (5, 50 and 500 ng/mL). […]

[5] = Drug release from polymer matrices in SGF; format: physicochemical; conditions: for drug released: n = 3
Protocol: Drug loaded polymer matrices were synthesized by melt mixing. Appropriate amounts of drug and polymer were weighed and mixed in a 20 mL glass vial. The vial was then placed in a convection oven at 130 °C to melt the polymer. The mixture was then transferred to a negative mould heated to the same temperature. Once the mould was filled with the melted mixture, it was removed from the oven and cooled at room temperature.
Drug release studies were performed in SGF supplemented with 5%w/w Tween® 20. The drug–polymer matrices were placed in 50 mL release media at 37 °C in an incubator shaker at 150 r.p.m. At various times, about 1 mL of the media was collected and stored at −20 °C until further analysis. The rest of the media was discarded and the drug–polymer matrix was placed in fresh media. Drug concentrations in the aliquots were measured using HPLC as described previously.

[6] = system: drug-resistant HIV strains; conditions: cited from earlier work
[7] = system: HIV; design: method as in ref 2–6 (a number printed in a supplementary file, which may have a reference list of its own: not looked up in the article's list); conditions: monotherapy or dual therapy with rilpivirine, after a two-year follow up; cited from earlier work
[8] = immediate release formulation, pigs

SMILES: C[C@@H]1CCO[C@H]2Cn3cc(C(=O)NCc4ccc(F)cc4F)c(=O)c(O)c3C(=O)N12 [DTG, dolutegravir]
- usual Cmax in humans [1]: 3700 ng/mL
- stability at elevated temperature [2]: stable
- Half-life, τ1/2 [3]: 14 h
- Cmax ([3]; maximum plasma concentration at steady state, perfect adherence): 8.75 µM
- Tmax ([4]; female, Yorkshire, pig, plasma, oral, immediate release formulation, pigs, post-dose, read-out: time of maximum plasma concentration (converted)): 6 h
- mean peak plasma concentration relative to immediate release ([4]; gastric resident system, pigs): comparable to that of the immediate release formulation
- time to mean peak plasma concentration ([4]; gastric resident system, pigs): ≤ 6 h
- average (sustained) plasma drug concentrations throughout the week following dosing ([4]; gastric resident system, pigs, n = 3): 200 to 800 ng/mL
- duration of sustained drug concentrations ([4]; gastric resident system, single dose): up to 1 week
- day at or after which no drug was detected in plasma [4, 8]: 2 days
- plasma drug concentrations on day 1 [4, 8]: low but detectable
- time to detectable plasma concentrations [4, 8]: ≤ 15 min
- average maximum plasma concentration ([4]; immediate release formulation, pigs, n = 3): ~ 500 ng/mL
- drug released ([5]; PCL matrix, over a week): 5%
- total drug release from poly(anhydrides) relative to PCL ([5]; poly(anhydride) matrices vs PCL): 4–8 fold
- drug released ([5]; poly(ethylene glycol) matrix, within the first 6 h): 60–70%
- Fold change in IC50 (ρ) ([6]; mutation E138K/Q148K): 19.00
- Fold change in IC50 (ρ) ([6]; mutation E138K): 0.40
- Fold change in IC50 (ρ) ([6]; mutation E157Q/R263K): 19.90
- Fold change in IC50 (ρ) ([6]; mutation E157Q): 0.01
- Fold change in IC50 (ρ) ([6]; mutation G140S/Q148R): 7.98
- Fractional change in slope (σ) ([6]; mutation G140S/Q148R): 0.01
- Fold change in IC50 (ρ) ([6]; mutation G140S): 0.76
- Fractional change in slope (σ) ([6]; mutation G140S): -0.01
- Fold change in IC50 (ρ) ([6]; mutation H51Y/R263K): 6.95
- Fold change in IC50 (ρ) ([6]; mutation H51Y): 1.25
- Fold change in IC50 (ρ) ([6]; mutation M50I/R263K): 15.59
- Fold change in IC50 (ρ) ([6]; mutation M50I): 1.94
- Fold change in IC50 (ρ) ([6]; mutation N155H): 1.96
- Fold change in IC50 (ρ) ([6]; mutation Q148K): 1.10
- Fold change in IC50 (ρ) ([6]; mutation Q148R/N155H): 10.00
- Fold change in IC50 (ρ) ([6]; mutation Q148R): 1.20
- Fold change in IC50 (ρ) ([6]; mutation R263K): 2.00
- patients with plasma viremia levels of <50 copies/mL [7]: > 95 % patients

Reference: publication PMC5760734, “Development of an oral once-weekly drug delivery system for HIV antiretroviral therapy” (Nature Communications, 2018)
